# Source: patent EP2966448B1, “METHOD FOR THE PREDICTION OR PROGNOSIS OF THE RESPONSE OF A HUMAN SUBJECT SUFFERING FROM CANCER TO TREATMENT WITH AN ANTAGONIST OF THE NK1 RECEPTOR” (priority 2013, dated 2014)
# Like-named read-outs stand apart in the source and are kept apart here.
# Tests used:
# [1] = system: Thyroid carcinoma (papillary type); assay: Inhibition of primary tumor cell cultures (48 hours) vs NK1 receptor immunostaining (Example 1); type: cell-based; conditions: Homo sapiens, 1 micromolar, read-out: Percentage of inhibition of cell cultures
# Protocol: (§1) Cell cultures. To obtain tumor cells from human primary tumors we used the method described in De Bari et al. (De Bari et al. 2001). Briefly, small pieces of the tumors were digested into a hyaluronidase solution (Sigma-Aldrich, USA) at a concentration of 1 mg/ml during 15 minutes at 37°C, and then they were treated with 6 mg/ml of collagenase type IV (Invitrogen) during 2 hours at 37°C. Consecutively, cells were washed, and resuspended in the DMEM culture medium with high concentration of glucose (Dulbecco's Modified Eagle's Medium, Invitrogen) supplemented with 1% of antibiotics-antimycotics (Invitrogen) and with 1% of sodium pyruvate (Invitrogen), and the cells were seeded in culture slides at a concentration of 10.000 cells per square centimeter. When cells reached confluence, the adherent cells were separated using sterile trypsin at 0,5% (Invitrogen) and they were used among passages 3 and 9. For the assays shown next, tumor cells were seeded on slides at a concentration of 25.000 cells per well. A total of 6 wells containing the tumor cells were used as survival control. […] All the cultures were kept during 48 hours and later on recollected for their analysis.
# (§2) Immunohistochemistry techniques. The presence of NK1 receptors was also analyzed using immunohistochemistry techniques. Briefly, a sample of each of the cultures of the cell lines used in the present invention, was centrifuged (5 minutes at 1.500 rpm) and the pellet obtained was dehydrated using increasing concentrations of ethanol and, finally, xylol. Then, said dehydrated samples were embedded in paraffin, creating a block of cells. Such paraffin blocks were cut with a microtome at 5 microns thickness, and were placed on microscope slides adequate to perform immunohistochemistry techniques. Consecutively, they were de-paraffinized by immersing them in xylol, to be finally hydrated using a solution containing decreasing concentrations of ethanol, and finally submerged them into water. […] After this, the samples were left to cool down at room temperature for 10 minutes. The endogenous peroxidase activity was blocked with 3% peroxide of hydrogen for 30 minutes at room temperature. After washing the samples with 0.05 M of Tris buffer, they were incubated with 10% non-immune pork serum at for 30 minutes at room temperature. To analyze the expression of NK1 receptors, the cellular samples were incubated in the presence of anti-NK1 antibodies (S8305, Sigma-Aldrich) diluted 1:1000, overnight at 4°C. Afterwards, the samples were washed in Tris buffer 0.05 M at room temperature. The next step was the addition of Envision System-HRP (Dako) reagents for 30 minutes at room temperature. Then, the samples were washed again in Tris buffer 0.05 M and the immunoreactivity was visualized through light microscopy with a chromogenic solution containing 3,3'-Diaminobenzidine (DAB+; Dako, USA). To differentiate the cell nuclei, they were slightly stained with hematoxylin. As negative control, it was used samples not incubated with the primary antibody anti-NK1, which was replaced by non-immune serum. All the samples were evaluated.
# (§3) To value the immunostaining in each of the cases six cuts were performed to be analyzed by the immunohistochemistry technique. In each of the six cuts, it was counted cells in 20 fields (magnification 400x) using an Olympus microscope (model CX31). In each field it was counted the total number of cells and the number of cells presenting immunostaining, calculating afterwards the percentage of cells which presented immunostaining.
# Gastric carcinoma = assay: as above; type: cell-based; conditions: Homo sapiens, 1 micromolar, read-out: Percentage of inhibition of cell cultures
# Protocol: as §1, §2, §3
# [2] = system: Lung carcinoma (non small cell type); assay: as above; type: cell-based; conditions: Homo sapiens, 1 micromolar, read-out: Percentage of inhibition of cell cultures
# Protocol: as §1, §2, §3
# Neuroblastoma = assay: as above; type: cell-based; conditions: Homo sapiens, 1 micromolar, read-out: Percentage of inhibition of cell cultures
# Protocol: as §1, §2, §3
# Burkitt Lymphoma = assay: Inhibition of primary tumor cell cultures vs Kras mutation (Example 2); type: cell-based, human; conditions: Homo sapiens, Cases with Kras mutated; 100 micromolar; read-out: Percentage of inhibition of cell cultures
# Protocol: as §1
# (§4) In each case the presence or not of mutations in K-ras gene was determined.
# (§5) To determine the existence of mutations in the K-ras gene DNA from cancer tumor cells was extracted from samples obtained from the different cancer tumor cells, using DNA extraction kits from Takara (Madison, WI, US) or Ambion (Huntingdon, Cambridgeshire, United Kingdom), following the manufacturer's instructions, and as it has been previously published (Di Fiore F, et al. 2007). Consecutively it was analyzed by sequencing the exon 2 of the KRAS gene, , by means of PCR amplification from previously extracted cancer tumor DNA, using the following sense primer (SEQ ID NO. 15): 5'-[sequence]-3' and anti-sense primer (SEQ ID NO. 16): 5'-[sequence]-3'. After the purification using the Qiagen extraction kit, the PCR products were sequenced using the Big Dye Terminator Kit V3.1 (Applied Biosystems, Foster City, CA, U.S.) and an ABI Prism 377 or 3100 DNA sequencer (Applied Biosystems). The presence of a heterozygous mutation in the KRAS gene in cancer tumor cells of the cultures was defined as the appearance of a mutant peak of a height of at least a third of the wild type. All the sequence analysis were executed at least twice in two independent PCR.
# (§6) The antibody against NK1 receptor (Table 16) was used at 1/50 concentration. The percentages of inhibition are expressed in percentage of variation in relation to control ± standard deviation.
# Endometrium carcinoma [3] = assay: cells; conditions: Homo sapiens, 1 micromolar
# Protocol: as §1, §2, §3
# Renal cell carcinoma = assay: Inhibition of primary tumor cell cultures (48 hours) vs NK1 receptor immunostaining (Example 1); type: cell-based; conditions: Homo sapiens, 1 micromolar, read-out: Percentage of inhibition of cell cultures
# Protocol: as §1, §2, §3
# [4] = system: human primary tumor cells; assay: Inhibition of primary tumor cell cultures vs absence or presence of AKT protein (Example 4; tumor type per table line); type: cell-based; conditions: Non Hodgkin Lymphoma B (diffuse B cell lymphoma); cases with presence of AKT; 100 micromolar
# Protocol: (§7) Cell cultures. […] Briefly, small pieces of the tumors were digested into a hyaluronidase solution (Sigma-Aldrich, USA) at a concentration of 1 mg/ml during 15 minutes at 37°C, and then they were treated with 6 mg/ml of collagenase type IV (Invitrogen) during 2 hours at 37°C. Consecutively, cells were washed, and resuspended in the DMEM culture medium with high concentration of glucose (Dulbecco's Modified Eagle's Medium, Invitrogen) supplemented with 1% of antibiotics-antimycotics (Invitrogen) and with 1% of sodium pyruvate (Invitrogen), and the cells were seeded in culture slides at a concentration of 10.000 cells per square centimeter. When cells reached confluence, the adherent cells were separated using sterile trypsin at 0,5% (Invitrogen) and they were used among passages 3 and 9. For the assays shown next, tumor cells were seeded on slides at a concentration of 25.000 cells per well. A total of 6 wells containing the tumor cells were used as survival control. […] All the cultures were kept during 48 hours and later on recollected for their analysis.
# Afterwards, the cells were cultured in presence of several antagonists of the NK1 receptor.
# In each case it was determined the presence or absence of the AKT protein effector downstream in the PI3 Kinases pathway.
# To determine the presence of the AKT protein in the different cultures Western Blot technique was performed (following the description in example 1-Western Blot section), but using as primary antibody with reference: Akt (pan) (11E7) Rabbit mAb (4685, Cell Signalling).
# The antibody against NK1 receptor (Table 26) was used at 1/50 concentration. The percentages of inhibition are expressed in percentage of variation in relation to control ± standard deviation.
# [5] = system: Thyroid carcinoma (follicular carcinoma); assay: Inhibition of primary tumor cell cultures vs Kras mutation (Example 2); type: cell-based, human; conditions: Homo sapiens, Cases with Kras mutated; 100 micromolar; read-out: Percentage of inhibition of cell cultures
# Protocol: (§8) To obtain tumor cells from human primary tumors we used the method described in De Bari et al. (De Bari et al. 2001). Briefly, small pieces of the tumors were digested into a hyaluronidase solution (Sigma-Aldrich, USA) at a concentration of 1 mg/ml during 15 minutes at 37°C, and then they were treated with 6 mg/ml of collagenase type IV (Invitrogen) during 2 hours at 37°C. Consecutively, cells were washed, and resuspended in the DMEM culture medium with high concentration of glucose (Dulbecco's Modified Eagle's Medium, Invitrogen) supplemented with 1% of antibiotics-antimycotics (Invitrogen) and with 1% of sodium pyruvate (Invitrogen), and the cells were seeded in culture slides at a concentration of 10.000 cells per square centimeter. When cells reached confluence, the adherent cells were separated using sterile trypsin at 0,5% (Invitrogen) and they were used among passages 3 and 9. For the assays shown next, tumor cells were seeded on slides at a concentration of 25.000 cells per well. A total of 6 wells containing the tumor cells were used as survival control. […] All the cultures were kept during 48 hours and later on recollected for their analysis.
# as §4, §5, §6
# Glioma = assay: Inhibition of primary tumor cell cultures (48 hours) vs NK1 receptor immunostaining (Example 1); type: cell-based; conditions: Homo sapiens, 1 micromolar, read-out: Percentage of inhibition of cell cultures
# Protocol: as §1, §2, §3
# [6] = system: Non Hodgkin Lymphoma T (diffuse T cell lymphoma); assay: Inhibition of primary tumor cell cultures vs Kras mutation (Example 2); type: cell-based, human; conditions: Homo sapiens, T-cell, Cases with Kras mutated; 100 micromolar; read-out: Percentage of inhibition of cell cultures
# Protocol: as §1, §4, §5
# (§9) The percentages of inhibition are expressed in percentage of variation in relation to control ± standard deviation.
# Leukemia B = assay: Inhibition of primary tumor cell cultures (48 hours) vs NK1 receptor immunostaining (Example 1); type: cell-based; conditions: Homo sapiens, 1 micromolar, read-out: Percentage of inhibition of cell cultures
# Protocol: as §1, §2, §3
# [7] = system: human primary tumor cells; assay: Inhibition of primary tumor cell cultures vs low or high expression of the truncated form of NK1 receptor (Example 5; tumor type per table line); type: cell-based; conditions: 100 micromolar
# Protocol: as §1
# The presence of the truncated form of NK1 receptor was determined and then cells were cultured in presence of several antagonists of the NK1 receptor.
# In each case the presence of the truncated form of the NK1 receptor was determined.
# To determine the presence of the truncated form of the gene of NK1 receptor PCR technique was performed (Polymerase Chain Reaction). The extraction of RNA, amplifications of PCR, cycle conditions and quantitative analysis were executed as it has been previously described. The specific primers were the following: For the full-length NK1R receptor (NM_001058.3; forward (SEQ ID NO: 17)-: 5'-[sequence]-3 ' and reverse- (SEQ ID NO:18): 5'-[sequence]-3') and for the truncated NK1receptor (NM_015727.2; forward (SEQ ID NO: 19): 5'-[sequence]-3 and reverse (SEQ ID NO;20): 5'-[sequence]-3').
# Cases were distributed in two groups: • Group A -low expression of the truncated form of NK1 receptor- for those cases wherein the expression of the truncated form of NK1 receptor was less than double the expression of the full length form of such receptor. • Group B -high expression of the truncated form of NK1 receptor- for those cases wherein the expression of the truncated form of the NK1 receptor was higher than double the expression of the full length form of such receptor.
# The percentages of inhibition are expressed in percentage of variation in relation to the control ± standard deviation.
# Breast carcinoma = assay: Inhibition of primary tumor cell cultures (48 hours) vs NK1 receptor immunostaining (Example 1); type: cell-based; conditions: Homo sapiens, 1 micromolar, read-out: Percentage of inhibition of cell cultures
# Protocol: as §1, §2, §3
# Myeloma = assay: as above; type: cell-based; conditions: Homo sapiens, 1 micromolar, read-out: Percentage of inhibition of cell cultures
# Protocol: as §1, §2, §3
# [8] = system: Breast carcinoma (ductal adenocarcinoma); assay: Inhibition of primary tumor cell cultures vs Kras mutation (Example 2); type: cell-based, human; conditions: Homo sapiens, Cases with Kras mutated; 100 micromolar; read-out: Percentage of inhibition of cell cultures
# Protocol: as §7, §4, §5, §6
# [9] = system: Lung carcinoma (small cell type); assay: Inhibition of primary tumor cell cultures (48 hours) vs NK1 receptor immunostaining (Example 1); type: cell-based; conditions: Homo sapiens, 1 micromolar, read-out: Percentage of inhibition of cell cultures
# Protocol: as §1, §2, §3
# [10] = system: Lung carcinoma (non small cell lung carcinoma); assay: Inhibition of primary tumor cell cultures vs Kras mutation (Example 2); type: cell-based, human; conditions: Homo sapiens, Cases with Kras mutated; 100 micromolar; read-out: Percentage of inhibition of cell cultures
# Protocol: as §8, §4, §5, §6
# Ewing Sarcoma = assay: Inhibition of primary tumor cell cultures (48 hours) vs NK1 receptor immunostaining (Example 1); type: cell-based; conditions: Homo sapiens, 1 micromolar, read-out: Percentage of inhibition of cell cultures
# Protocol: as §1, §2, §3
# [11] = system: Urinary bladder carcinoma (transitional cell carcinoma); assay: Inhibition of primary tumor cell cultures vs Kras mutation (Example 2); type: cell-based, human; conditions: Homo sapiens, Cases with Kras mutated; 100 micromolar; read-out: Percentage of inhibition of cell cultures
# Protocol: as §8, §4, §5, §6
# Prostate carcinoma = assay: as above; type: cell-based, human; conditions: Homo sapiens, Cases with Kras mutated; 100 micromolar; read-out: Percentage of inhibition of cell cultures
# Protocol: as §1, §4, §5, §9
# Endometrium carcinoma [12] = assay: as above; type: cell-based, human; conditions: Homo sapiens, Cases with Kras mutated; 100 micromolar; read-out: Percentage of inhibition of cell cultures
# Protocol: as §7, §4, §5, §6
# Hodgkin lymphoma = assay: Inhibition of primary tumor cell cultures (48 hours) vs NK1 receptor immunostaining (Example 1); type: cell-based; conditions: Homo sapiens, 1 micromolar, read-out: Percentage of inhibition of cell cultures
# Protocol: as §1, §2, §3
# [13] = NK1 receptor immunostaining Group 1 (less than 20% of the cells)
# [14] = NK1 receptor immunostaining Group 2 (20-80% of the cells)
# [15] = NK1 receptor immunostaining Group 3 (more than 80% of the cells)
# [16] = NK1 receptor immunostaining Intensity grade 1
# [17] = NK1 receptor immunostaining Intensity grade 2
# [18] = NK1 receptor immunostaining Intensity grade 3
smiles,measurement,setting,value
C[C@@H](O[C@H]1OCCN(Cc2n[nH]c(=O)[nH]2)[C@H]1c1ccc(F)cc1)c1cc(C(F)(F)F)cc(C(F)(F)F)c1 [Aprepitant],inhibition at 1 µM,[1]; [13],10 ± 3%
same,inhibition at 1 µM,[1]; [14],47 ± 3%
same,inhibition at 1 µM,[1]; [15],97 ± 6%
same,inhibition at 1 µM,[1]; [16],27 ± 6%
same,inhibition at 1 µM,[1]; [17],56 ± 4%
same,inhibition at 1 µM,Gastric carcinoma; [13],10 ± 3%
same,inhibition at 1 µM,Gastric carcinoma; [14],45 ± 3%
same,inhibition at 1 µM,Gastric carcinoma; [15],92 ± 3%
same,inhibition at 1 µM,Gastric carcinoma; [16],25 ± 6%
same,inhibition at 1 µM,Gastric carcinoma; [17],57 ± 5%
same,inhibition at 1 µM,Gastric carcinoma; [18],96 ± 4%
same,inhibition at 1 µM,[2]; [13],9 ± 3%
same,inhibition at 1 µM,[2]; [14],41 ± 3%
same,inhibition at 1 µM,[2]; [15],94 ± 7%
same,inhibition at 1 µM,[2]; [16],28 ± 5%
same,inhibition at 1 µM,[2]; [17],57 ± 5%
same,inhibition at 1 µM,[2]; [18],95 ± 3%
same,inhibition at 1 µM,Neuroblastoma; [13],10 ± 3%
same,inhibition at 1 µM,Neuroblastoma; [14],44 ± 5%
same,inhibition at 1 µM,Neuroblastoma; [15],97 ± 5%
same,inhibition at 1 µM,Neuroblastoma; [16],27 ± 6%
same,inhibition at 1 µM,Neuroblastoma; [17],57 ± 6%
same,inhibition at 1 µM,Neuroblastoma; [18],97 ± 5%
same,inhibition at 100 µM,Burkitt Lymphoma,24 ± 3%
same,inhibition at 1 µM,"Endometrium carcinoma [3]; read-out: Percentage of inhibition of cell cultures, NK1 receptor immunostaining Group 1 (less than 20% of the cells)",12 ± 2%
same,inhibition at 1 µM,"Endometrium carcinoma [3]; read-out: Percentage of inhibition of cell cultures, NK1 receptor immunostaining Group 2 (20-80% of the cells)",49 ± 2%
same,inhibition at 1 µM,"Endometrium carcinoma [3]; read-out: Percentage of inhibition of cell cultures, NK1 receptor immunostaining Group 3 (more than 80% of the cells)",95 ± 4%
same,inhibition at 1 µM,"Endometrium carcinoma [3]; read-out: Percentage of inhibition of cell cultures, NK1 receptor immunostaining Intensity grade 1",25 ± 7%
same,inhibition at 1 µM,"Endometrium carcinoma [3]; read-out: Percentage of inhibition of cell cultures, NK1 receptor immunostaining Intensity grade 2",59 ± 5%
same,inhibition at 1 µM,Renal cell carcinoma; [13],10 ± 3%
same,inhibition at 1 µM,Renal cell carcinoma; [14],45 ± 4%
same,inhibition at 1 µM,Renal cell carcinoma; [15],93 ± 6%
same,inhibition at 1 µM,Renal cell carcinoma; [16],27 ± 6%
same,inhibition at 1 µM,Renal cell carcinoma; [17],57 ± 6%
same,inhibition at 1 µM,Renal cell carcinoma; [18],95 ± 6%
same,Percentage of inhibition of cell cultures,[4],95±3 percentage
same,inhibition at 100 µM,[5],26 ± 3%
same,inhibition at 1 µM,Glioma; [13],11 ± 4%
same,inhibition at 1 µM,Glioma; [14],47 ± 4%
same,inhibition at 1 µM,Glioma; [15],94 ± 6%
same,inhibition at 1 µM,Glioma; [16],28 ± 7%
same,inhibition at 1 µM,Glioma; [17],55 ± 6%
same,inhibition at 1 µM,Glioma; [18],97 ± 4%
same,inhibition at 100 µM,[6],25 ± 4%
same,inhibition at 1 µM,Leukemia B; [13],11 ± 2%
same,inhibition at 1 µM,Leukemia B; [14],43 ± 4%
same,inhibition at 1 µM,Leukemia B; [15],95 ± 4%
same,inhibition at 1 µM,Leukemia B; [16],28 ± 5%
same,inhibition at 1 µM,Leukemia B; [17],54 ± 5%
same,inhibition at 1 µM,Leukemia B; [18],95 ± 6%
same,Percentage of inhibition of cell cultures,"[7]; Non Hodgkin Lymphoma B (diffuse B cell lymphoma), Cases with low expression of the truncated form of NK1 receptor (Group A)",23±4 percentage
same,Percentage of inhibition of cell cultures,"[7]; Non Hodgkin Lymphoma T (diffuse T cell lymphoma), Cases with high expression of the truncated form of NK1 receptor (Group B)",98±6 percentage
same,Percentage of inhibition of cell cultures,"[7]; Ovarian carcinoma (Adenocarcinoma), Cases with low expression of the truncated form of NK1 receptor (Group A)",29±3 percentage
same,inhibition at 1 µM,Breast carcinoma; [13],11 ± 1%
same,inhibition at 1 µM,Breast carcinoma; [14],46 ± 3%
same,inhibition at 1 µM,Breast carcinoma; [15],94 ± 5%
same,inhibition at 1 µM,Breast carcinoma; [16],28 ± 6%
same,inhibition at 1 µM,Breast carcinoma; [17],58 ± 5%
same,inhibition at 1 µM,Breast carcinoma; [18],95 ± 7%
same,inhibition at 1 µM,Myeloma; [13],11 ± 2%
same,inhibition at 1 µM,Myeloma; [14],46 ± 5%
same,inhibition at 1 µM,Myeloma; [15],95 ± 4%
same,inhibition at 1 µM,Myeloma; [16],28 ± 5%
same,inhibition at 1 µM,Myeloma; [17],55 ± 3%
same,inhibition at 1 µM,Myeloma; [18],92 ± 5%
same,inhibition at 100 µM,[8],22 ± 2%
same,inhibition at 1 µM,[9]; [13],10 ± 2%
same,inhibition at 1 µM,[9]; [14],42 ± 3%
same,inhibition at 1 µM,[9]; [15],97 ± 6%
same,inhibition at 1 µM,[9]; [16],29 ± 6%
same,inhibition at 1 µM,[9]; [17],56 ± 6%
same,inhibition at 1 µM,[9]; [18],96 ± 4%
same,inhibition at 100 µM,[10],21 ± 2%
same,inhibition at 1 µM,Ewing Sarcoma; [13],11 ± 2%
same,inhibition at 1 µM,Ewing Sarcoma; [14],48 ± 6%
same,inhibition at 1 µM,Ewing Sarcoma; [15],94 ± 6%
same,inhibition at 1 µM,Ewing Sarcoma; [16],27 ± 6%
same,inhibition at 1 µM,Ewing Sarcoma; [17],57 ± 4%
same,inhibition at 1 µM,Ewing Sarcoma; [18],95 ± 6%
same,inhibition at 100 µM,[11],26 ± 5%
same,inhibition at 100 µM,Prostate carcinoma,24 ± 3%
same,inhibition at 100 µM,Endometrium carcinoma [12],25 ± 4%
same,inhibition at 1 µM,Hodgkin lymphoma; [13],10 ± 3%
same,inhibition at 1 µM,Hodgkin lymphoma; [14],49 ± 3%
same,inhibition at 1 µM,Hodgkin lymphoma; [15],94 ± 5%
same,inhibition at 1 µM,Hodgkin lymphoma; [16],26 ± 5%
same,inhibition at 1 µM,Hodgkin lymphoma; [17],55 ± 3%
same,inhibition at 1 µM,Hodgkin lymphoma; [18],92 ± 6%
